What was measured:
Type in all cases: ADME, organism-based
Conditions in all cases: in vivo; call rule not given here
[1] = Drug excretion in Sprague-Dawley rat bile assessed as metabolite saikogenin f level at 50 mg/kg, po administered through gavage by LC-DAD-IT-TOF-MS analysis; design: dose 50 mg/kg, route oral
[2] = test system: Plasma; experiment: Drug metabolism in Sprague-Dawley rat plasma assessed as metabolite hydroxysaikosaponin a formation at 15 mg/kg, iv by LC-DAD-IT-TOF-MS analysis; design: dose 15 mg/kg, route intravenous
[3] = Drug excretion in Sprague-Dawley rat urine assessed as metabolite 3-keto-saikogenin f level at 50 mg/kg, po administered through gavage by LC-DAD-IT-TOF-MS analysis; design: dose 50 mg/kg, route oral
[4] = test system: Plasma; experiment: Drug metabolism in Sprague-Dawley rat plasma assessed as metabolite 3-keto-saikogenin f formation at 50 mg/kg, po administered through gavage by LC-DAD-IT-TOF-MS analysis; design: dose 50 mg/kg, route oral
[5] = Drug excretion in Sprague-Dawley rat urine assessed as metabolite saikogenin f level at 15 mg/kg, iv by LC-DAD-IT-TOF-MS analysis; design: dose 15 mg/kg, route intravenous
[6] = test system: Plasma; experiment: Drug uptake in Sprague-Dawley rat plasma at 50 mg/kg, po administered through gavage by LC-DAD-IT-TOF-MS analysis; design: dose 50 mg/kg, route oral
[7] = Drug excretion in Sprague-Dawley rat urine assessed as metabolite prosaikogenin f level at 15 mg/kg, iv by LC-DAD-IT-TOF-MS analysis; design: dose 15 mg/kg, route intravenous
[8] = test system: Plasma; experiment: Drug uptake in Sprague-Dawley rat plasma at 15 mg/kg, iv by LC-DAD-IT-TOF-MS analysis; design: dose 15 mg/kg, route intravenous
[9] = Drug excretion in Sprague-Dawley rat feces assessed as metabolite hydroxysaikosaponin a level at 50 mg/kg, po administered through gavage by LC-DAD-IT-TOF-MS analysis; design: dose 50 mg/kg, route oral
[10] = Drug excretion in Sprague-Dawley rat bile assessed as metabolite hydroxysaikosaponin a level at 50 mg/kg, po administered through gavage by LC-DAD-IT-TOF-MS analysis; design: dose 50 mg/kg, route oral
[11] = test system: Plasma; experiment: Drug metabolism in Sprague-Dawley rat plasma assessed as metabolite delta1-saikogenin f formation at 15 mg/kg, iv by LC-DAD-IT-TOF-MS analysis; design: dose 15 mg/kg, route intravenous
[12] = Drug excretion in Sprague-Dawley rat bile assessed as metabolite 3-keto-saikogenin f level at 15 mg/kg, iv by LC-DAD-IT-TOF-MS analysis; design: dose 15 mg/kg, route intravenous
[13] = test system: Plasma; experiment: Drug metabolism in Sprague-Dawley rat plasma assessed as metabolite saikogenin f-27-oic acid formation at 50 mg/kg, po administered through gavage by LC-DAD-IT-TOF-MS analysis; design: dose 50 mg/kg, route oral
[14] = Drug excretion in Sprague-Dawley rat feces assessed as metabolite prosaikogenin f level at 15 mg/kg, iv by LC-DAD-IT-TOF-MS analysis; design: dose 15 mg/kg, route intravenous
[15] = Drug excretion in Sprague-Dawley rat bile assessed as metabolite hydroxysaikosaponin a level at 15 mg/kg, iv by LC-DAD-IT-TOF-MS analysis; design: dose 15 mg/kg, route intravenous
[16] = test system: Plasma; experiment: Drug metabolism in Sprague-Dawley rat plasma assessed as metabolite delta1-saikogenin f formation at 50 mg/kg, po administered through gavage by LC-DAD-IT-TOF-MS analysis; design: dose 50 mg/kg, route oral
[17] = Drug excretion in Sprague-Dawley rat feces assessed as metabolite 3-keto-saikogenin f level at 50 mg/kg, po administered through gavage by LC-DAD-IT-TOF-MS analysis; design: dose 50 mg/kg, route oral
[18] = Drug excretion in Sprague-Dawley rat bile assessed as metabolite delta1-saikogenin f level at 15 mg/kg, iv by LC-DAD-IT-TOF-MS analysis; design: dose 15 mg/kg, route intravenous
[19] = Drug excretion in Sprague-Dawley rat urine assessed as metabolite saikogenin f level at 50 mg/kg, po administered through gavage by LC-DAD-IT-TOF-MS analysis; design: dose 50 mg/kg, route oral
[20] = Drug excretion in Sprague-Dawley rat urine assessed as metabolite prosaikogenin f level at 50 mg/kg, po administered through gavage by LC-DAD-IT-TOF-MS analysis; design: dose 50 mg/kg, route oral

- Drug excretion [1]: metabolite_not_detected
- Drug metabolism [2]: metabolite_not_detected
- Drug excretion [3]: metabolite_detected
- Drug metabolism [4]: metabolite_not_detected
- Drug excretion [5]: metabolite_not_detected
- Drug uptake [6]: Active
- Drug excretion [7]: metabolite_detected
- Drug uptake [8]: Active
- Drug excretion [9]: metabolite_not_detected
- Drug excretion [10]: metabolite_not_detected
- Drug metabolism [11]: metabolite_not_detected
- Drug excretion [12]: metabolite_not_detected
- Drug metabolism [13]: metabolite_not_detected
- Drug excretion [14]: metabolite_detected
- Drug excretion [15]: metabolite_detected
- Drug metabolism [16]: metabolite_not_detected
- Drug excretion [17]: metabolite_detected
- Drug excretion [18]: metabolite_not_detected
- Drug excretion [19]: metabolite_detected
- Drug excretion [20]: metabolite_detected
Structure (SMILES): C[C@H]1O[C@@H](O[C@H]2CC[C@@]3(C)[C@@H](CC[C@]4(C)[C@@H]3C=C[C@]35OC[C@@]6(CCC(C)(C)C[C@H]63)[C@@H](O)C[C@]54C)[C@]2(C)CO)[C@H](O)[C@@H](O[C@@H]2O[C@H](CO)[C@@H](O)[C@H](O)[C@H]2O)[C@H]1O [SAIKOSAPONIN A]
